# Literature values as cited in US8293800B2, “Quinone derivative 2,3-dimethoxy-5-methyl-6-(10-hydroxydecyl)-1,4-benzoquinone for the treatment of primary progressive multiple sclerosis” (Santhera Pharmaceuticals (Schweiz) AG, priority 2009, dated 2012).
# What was measured:
# [1] = chronic-progressive form of MS; 90 mg/day in combination with methylprednisolone over 240 days
# [2] = PP-MS cohort; did not reach statistical significance
# [3] = PP-MS, placebo-controlled Phase II
# [4] = PP-MS patients
compound,measurement,setting,value
"COC1=C(OC)C(=O)C(CCCCCCCCCCO)=C(C)C1=O [Idebenone, 2,3-dimethoxy-5-methyl-6-(10-hydroxydecyl)-1,4-benzoquinone]",clinical or neurophysiological efficacy,[1],could not be shown to have any clinical or neurophysiological efficacy
Nc1nc2ccc(OC(F)(F)F)cc2s1 [riluzole],inhibiting the development of cervical cord atrophy,[2],mild effect
"Rituximab: Rituximab, tested in a placebo-controlled Phase II trial in PP-MS",effect on the accumulation of disability,[3],failed to demonstrate any effect
interferon-beta,could slow down the accumulation of disability in PP-MS,[4],Neither
